Test results from patent publication US20230087825A1, “SMARCA DEGRADERS AND USES THEREOF” (Kymera Therapeutics, Inc., priority 2019, published 2023).

Biological target: T1, SMARCA2 (Homo sapiens, UniProt P51531)
T1 construct: host or cells: NCI-H1299
Experiment: MSD SMARCA2 degradation in NCI-H1299 cell line
Type: cell-based
Conditions: NCI-H1299 cells; percentage of SMARCA2 degradation after 24 hours
Method: Example 12. MSD SMARCA2 Degration in NCI-H1299 Cell Line
Cell Culture: Cells were cultured in exponential growth phase.
Compound Preparation and Treatment: NCI-H1299 cells were seeded into the 96-well plate at 4.0*10^4 cells per 100 ul per well. Incubate the plate in the incubator overnight. The next day, compounds were diluted to designed stock concentration by TECAN, then perform a 3 fold, 9-point dilution via transferring 15 uL compound into 30 μL DMSO using Apricot. 200 nL diluted compound from compound source plate were transferred into the 96-intermediate plate as designated by using Echo550, followed with 100 ul culture medium to make the 2× compound solution. Cell plate were changed with 80 ul of fresh culture medium and 80 ul of 2× compound solution was added into the well to achieve the final designed concentration. Cell plate was then shaken at 720 rpm for 5 min and incubated for 24 hours in the incubator.
Sample Preperation: Media was aspirated from the cultures and the plate was washed with PBS twice. […]
MSD Procedure: The MSD plate was coated with 40 ul cell lysate and incubated at 4° C. overnight. […] MSD plate was washed 3 times with 150 ul 1×TBST per well and 2× MSD reading buffer was added, 150 ul per well, and diluted from 4× with water. MSD instrument was then read.
Data Analysis: The percentage of relative level of SMARCA2 level was calculated following equation below. […]

T1 sequence (P51531 whole entry): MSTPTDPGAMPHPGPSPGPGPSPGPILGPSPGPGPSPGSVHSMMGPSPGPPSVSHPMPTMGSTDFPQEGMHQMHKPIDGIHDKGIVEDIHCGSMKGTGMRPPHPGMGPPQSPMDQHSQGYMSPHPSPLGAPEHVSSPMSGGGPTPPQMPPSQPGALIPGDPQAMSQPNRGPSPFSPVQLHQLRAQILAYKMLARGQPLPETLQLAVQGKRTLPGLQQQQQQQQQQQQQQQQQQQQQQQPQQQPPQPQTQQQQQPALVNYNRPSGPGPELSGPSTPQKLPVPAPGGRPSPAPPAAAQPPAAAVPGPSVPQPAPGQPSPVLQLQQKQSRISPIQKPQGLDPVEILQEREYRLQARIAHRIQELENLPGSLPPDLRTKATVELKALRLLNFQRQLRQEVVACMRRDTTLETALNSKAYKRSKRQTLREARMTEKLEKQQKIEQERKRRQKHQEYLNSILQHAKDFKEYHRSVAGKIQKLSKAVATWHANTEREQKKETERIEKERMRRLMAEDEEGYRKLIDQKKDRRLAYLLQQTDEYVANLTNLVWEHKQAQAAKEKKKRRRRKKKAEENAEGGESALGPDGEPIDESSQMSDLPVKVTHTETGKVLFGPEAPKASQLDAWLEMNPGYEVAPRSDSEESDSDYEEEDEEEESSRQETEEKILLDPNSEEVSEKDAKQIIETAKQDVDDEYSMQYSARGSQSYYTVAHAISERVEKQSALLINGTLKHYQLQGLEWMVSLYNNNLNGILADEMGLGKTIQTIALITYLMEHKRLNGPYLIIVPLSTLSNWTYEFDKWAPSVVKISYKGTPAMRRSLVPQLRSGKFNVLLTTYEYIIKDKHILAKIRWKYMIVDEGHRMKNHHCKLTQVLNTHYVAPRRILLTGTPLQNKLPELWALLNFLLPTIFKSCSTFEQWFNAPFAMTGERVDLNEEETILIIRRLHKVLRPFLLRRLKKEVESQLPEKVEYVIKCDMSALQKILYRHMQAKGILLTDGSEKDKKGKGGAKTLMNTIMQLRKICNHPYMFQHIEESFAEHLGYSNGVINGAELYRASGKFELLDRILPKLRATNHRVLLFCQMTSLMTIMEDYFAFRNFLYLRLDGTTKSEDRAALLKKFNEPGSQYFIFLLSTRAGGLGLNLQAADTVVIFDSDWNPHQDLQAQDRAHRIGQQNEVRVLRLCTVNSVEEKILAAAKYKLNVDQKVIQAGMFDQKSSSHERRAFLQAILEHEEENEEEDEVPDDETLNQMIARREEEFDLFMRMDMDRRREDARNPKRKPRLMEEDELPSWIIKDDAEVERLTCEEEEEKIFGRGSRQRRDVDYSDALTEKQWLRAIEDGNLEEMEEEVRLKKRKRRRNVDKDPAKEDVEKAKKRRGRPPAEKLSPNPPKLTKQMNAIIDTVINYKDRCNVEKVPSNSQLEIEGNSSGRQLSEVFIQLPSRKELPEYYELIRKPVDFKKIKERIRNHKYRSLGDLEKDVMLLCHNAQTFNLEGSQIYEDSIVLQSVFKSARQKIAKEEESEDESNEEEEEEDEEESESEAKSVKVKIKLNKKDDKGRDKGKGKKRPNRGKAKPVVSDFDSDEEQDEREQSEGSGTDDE

Row | Dmax | Structure (SMILES)
1 | 70 to 90% | Nc1nnc(-c2ccccc2O)cc1-c1ccc(CN2CCN(CCCCCc3cccc4c3c3ccccc3n4C3CCC(=O)NC3=O)CC2)cc1 (centres unmarked) [I-7]
2 | 50 to 70% | Nc1nnc(-c2ccccc2O)cc1-c1ccc(CN2CCN(CCCCOCCCc3ccc4c(c3)c3ccccc3n4C3CCC(=O)NC3=O)CC2)cc1 (centres unmarked) [I-10]
